Results taken from a compilation of properties of binary mixtures (doi:10.1016/j.fluid.2019.06.006).

Experiment: xn = mol fraction of the nth substance listed
Conditions: 100 kPa

viscosity (303.15 K, x1 = 0.0941) | viscosity (303.15 K, x1 = 0.483) | viscosity (313.15 K, x1 = 0.0941) | viscosity (313.15 K, x1 = 0.1894) | viscosity (313.15 K, x1 = 0.483) | viscosity (313.15 K, x1 = 0.5836) | viscosity (323.15 K, x1 = 0.0941) | viscosity (323.15 K, x1 = 0.1894) | viscosity (323.15 K, x1 = 0.2859) | viscosity (323.15 K, x1 = 0.483) | viscosity (323.15 K, x1 = 0.5836) | viscosity (333.15 K, x1 = 0.0941) | viscosity (333.15 K, x1 = 0.1894) | viscosity (333.15 K, x1 = 0.2859) | viscosity (333.15 K, x1 = 0.483) | viscosity (333.15 K, x1 = 0.5836) | viscosity (303.15 K, x2 = 0) | viscosity (323.15 K, x2 = 0) | viscosity (333.15 K, x2 = 0) | SMILES
307 mPa·s | 1491.9 mPa·s | 155 mPa·s | 143.2 mPa·s | 572 mPa·s | 816 mPa·s | 88 mPa·s | 80.7 mPa·s | 292 mPa·s | 257 mPa·s | 348 mPa·s | 54.4 mPa·s | 49.5 mPa·s | 153 mPa·s | 130.5 mPa·s | 170.6 mPa·s | – | – | – | OC[C@@H](O)[C@@H](O)[C@H](O)[C@@H](O)CO + CC(=O)[O-].CC[n+]1ccn(C)c1
– | – | – | – | – | – | – | – | – | – | – | – | – | – | – | – | 89.4 mPa·s | 34.6 mPa·s | 23.8 mPa·s | CC(=O)[O-].CC[n+]1ccn(C)c1 + OC[C@H](O)[C@@H](O)[C@H](O)[C@H](O)CO
